Test results from patent publication US10806765B2, “Immunologically active phyto-mixture and its use in the prevention and in a method for treatment of efflorescences” (priority 2015, dated 2020).
≈ marks a conversion by molar mass, not a printed value. Like-named read-outs stand apart in the source and are kept apart here. Blank lines part the entries; values can stand above or below the molecule they belong to.

Assays:
Assay type in all cases: cell-based
[1] = MTT-assay, cytotoxicity of the extracts; settings: human, HaCaT cells (keratinocytes), individual extracts, mean ± SD, n=3
Protocol: HaCaT-Cells (human in vitro spontaneous transformed keratinocytes from histologically normal skin) of DMSZ (German Collection of Microorganisms and Cell Cultures) were kept in Dulbecco's modified Eagle Medium (DMEM) with glutamax (Invitrogen/Gibco, Karlsruhe, Germany) with 10% fetal calf serum (Sigma Aldrich, Germany), 100 U/ml penicillin and 100 μg/ml streptomycin and 1% NEAA.
The cells were cultivated at 37° C., 5% CO2 and 95% humidity. The cells were subcultivated by removing the medium, adding 0.075% EDTA-solution in 1-fold PBS (phosphate-buffered salt solution) and subsequently incubated at 37° C. for 10 min. […]
In order to determine the concentration dependent cytotoxicity 2×10^4 HaCaT-cells/sample well of a 96-well plate were transferred and incubated for 24 hours. […] After dissolving the formazan crystals formed by the HaCaT-cells in 100 μl DMSO (10 minutes shaking), absorption at 570 nm was measured (by means of Tecan Safire II Reader, Tecan Crailsheim, Germany). Doxorubicin was measured as reference. Cell vitality was determined according to the following formula:
IC50-values were calculated through the dose response curve which was created by use of a logistic regression curve with 4 parameters with the GraphPad Prism® 5.01 Software or SigmaPlot® 11.0.

[2] = system: Acinetobacter baumanii ATCC BAA747; assay: MIC/MBC, microbouillon dilution; settings: Acinetobacter baumannii, ATCCBAA747
Protocol: (§1) Gram-Positive Bacteria • Methicillin resistant Staphylococcus aureus MRSA NCTC 10442 (MRSA NCTC 10442) • Staphylococcus aureus ATCC 25923 (S. aureus ATCC 25923) • Staphylococcus epidermidis ATCC 14990 (S. epid. ATCC 14990)
(§2) Gram-Negative Bacteria • Pseudomonas aeruginosa ATCC 27853 (P. aerug. ATCC 27853) and • Acinetobacter baumanii ATCC BAA747 (ATCC BAA747)
(§3) The bacteria were precultivated on Columbia medium with 5% sheep blood at 37° C. for 24 hours. On to two colonies were suspended in saline solution (0.9% NaCl) and adjusted to a turbidity of 0.5 McFarland standard which corresponds to 1×10^8 colony forming units per milliliter (CFU/ml). Subsequently, the suspension was diluted to 1×10^6 CFU/ml.
(§4) Determination of the Minimal Inhibitory Concentration (MIC) and the Minimum Bactericidal Concentration (MBC)
(§5) The MIC was determined by means of the microbouillon dilution process according to NCCLS (2006). For this purpose, the aqueous extracts were dissolved in water (w/v) and the ethanolic extracts in 5% DMSO (w/v) with 80 mg/ml each and Bur. simaruba as well as Aloe vera were suspended with 160 mg/ml. The extracts and the combinations (1:1 mixture) of two plant extracts were respectively transferred into a sample well of a 96-well plate. The individual extracts were respectively adjusted to a concentration of 4 mg/ml to 8 mg/ml and 0.03 mg/ml and the combinations to 2:2 mg/ml to 0.3:0.3 mg/ml. Subsequently, the bacteria suspensions with about 5×10^5 CFU/ml in Müller Hinton medium (Fluka) were respectively added. The accordingly fitted 96-well plates were incubated at 37° C. for 24 hours.
(§6) The MIC was determined at 600 nm on the basis of the turbidity. In order to determine the MBC, 3 μl of the suspension of the respective sample well were spread on an full culture medium and incubated at 37° C. for 24 hours. The MBC was determined as lowest concentrations of the respective extract which totally kills the microorganisms.
(§7) All experiments were performed as three-fold determination (Table 4 to 5). The antibiotics Vancomycin (briefly: Van) and Streptomycin (briefly: Strep) were used parallely to each experimental approach as positive control for antimicrobial efficiency (Table 5c). Respectively one of the mentioned test germs was carried along with the respectively solvent (water, DMSO) as negative control for an inhibiting effect by the used solvent.

[3] = system: Staphylococcus epidermidis ATCC 14990; assay: MIC/MBC, microbouillon dilution
Protocol: as §1, §2, §3, §4, §5, §6, §7

[4] = system: Pseudomonas aeruginosa ATCC 27853; assay: MIC/MBC, microbouillon dilution; settings: ATCC27853, positive control antibiotic, unit from Table 5c
Protocol: as §1, §2, §3, §4, §5, §6, §7

[5] = system: Staphylococcus aureus ATCC 25923; assay: MIC/MBC, microbouillon dilution
Protocol: as §1, §2, §3, §4, §5, §6, §7

[6] = system: Methicillin resistant Staphylococcus aureus MRSA NCTC 10442; assay: MIC/MBC, microbouillon dilution
Protocol: as §1, §2, §3, §4, §5, §6, §7

SMILES: COc1cccc2c1C(=O)c1c(O)c3c(c(O)c1C2=O)C[C@@](O)(C(=O)CO)C[C@@H]3O[C@H]1C[C@H](N)[C@H](O)[C@H](C)O1 [Doxorubicin]
IC50 [1]: 8.6 ± 2.03 µg/mL (≈ 15.8 µM)

MIC ([2]; positive control antibiotic, unit from Table 5c, read-out: MIC): 2 µg/mL
MIC ([3]; ATCC14990, positive control antibiotic, unit from Table 5c, read-out: MIC): 1 µg/mL
MIC [4]: 4 µg/mL
MIC ([5]; ATCC25923, positive control antibiotic, unit from Table 5c): 2 µg/mL
SMILES: [H]/N=C(/N)N[C@H]1[C@H](O)[C@@H](O)[C@H](O[C@@H]2O[C@@H](C)[C@](O)(C=O)[C@H]2O[C@@H]2O[C@@H](CO)[C@H](O)[C@@H](O)[C@@H]2NC)[C@@H](N/C(N)=N\[H])[C@@H]1O [Strep, Streptomycin]
MBC ([2]; positive control antibiotic, unit from Table 5c, read-out: MBC): 4 µg/mL
MBC ([3]; ATCC14990, positive control antibiotic, unit from Table 5c, read-out: MBC): 8 µg/mL
MBC [4]: 8 µg/mL
MBC ([5]; ATCC25923, positive control antibiotic, unit from Table 5c, read-out: MBC): 8 µg/mL

SMILES: CN[C@H](CC(C)C)C(=O)N[C@H]1C(=O)N[C@@H](CC(N)=O)C(=O)N[C@H]2C(=O)N[C@H]3C(=O)N[C@H](C(=O)N[C@H](C(=O)O)c4cc(O)cc(O)c4-c4cc3ccc4O)[C@H](O)c3ccc(c(Cl)c3)Oc3cc2cc(c3O[C@@H]2O[C@H](CO)[C@@H](O)[C@H](O)[C@H]2O[C@H]2C[C@](C)(N)[C@H](O)[C@H](C)O2)Oc2ccc(cc2Cl)[C@H]1O [Van, Vancomycin]
MBC [2]: 128 µg/mL
MIC [2]: 64 µg/mL
MBC ([3]; ATCC14990): 2 µg/mL
MIC ([3]; ATCC14990): 1 µg/mL
MBC ([5]; ATCC25923): 0.5 µg/mL
MBC [6]: 2 µg/mL
MIC [6]: 1 µg/mL
